In PubChem BioAssay AID1259407 (Chemical Carcinogenesis Research Information System (CCRIS), 2018):
Activity calls are given as the source filed them. The rule behind the calls is not given here.

Test system: CCRIS mutagenicity, Ames/micronucleus/aberration tests
Assay: CCRIS mutagenicity studies
Description: The CCRIS database contains chemical records with carcinogenicity, mutagenicity, tumor promotion, and tumor inhibition test results. It was developed by the National Cancer Institute (NCI). Data are derived from studies cited in primary journals, current awareness tools, NCI reports, and other sources. Test results have been reviewed by experts in carcinogenesis and mutagenesis.
CCRIS provides historical information from the years 1985 - 2011. It is no longer updated.
This is an archive assay for CCRIS mutagenicity studies.

[1] = Test System: AMES SALMONELLA TYPHIMURIUM, Strain/Indicator: TA98, Metabolic Activation: NONE, Method: STANDARD PLATE
[2] = Test System: AMES SALMONELLA TYPHIMURIUM, Strain/Indicator: TA100, Metabolic Activation: NONE, Method: STANDARD PLATE
[3] = Test System: AMES SALMONELLA TYPHIMURIUM, Strain/Indicator: TA100, Metabolic Activation: RAT, LIVER, S-9, AROCLOR 1254, Method: STANDARD PLATE
[4] = Test System: AMES SALMONELLA TYPHIMURIUM, Strain/Indicator: TA1535, Metabolic Activation: NONE, Method: STANDARD PLATE
[5] = Test System: AMES SALMONELLA TYPHIMURIUM, Strain/Indicator: TA1535, Metabolic Activation: RAT, LIVER, S-9, AROCLOR 1254, Method: STANDARD PLATE

In the case of `C=C(C)C1CC=C(C=O)CC1` (centres undefined), the mutagenic call (End Point: IN VIVO MICRONUCLEUS, Test System: BONE MARROW POLYCHROMATIC ERYTHROCYTES, Species: MOUSE, Strain/Sex: DDY/MALE, Route: IP) is reported as “inactive; negative”.

With `Cc1ccc2cc3c(cc2c1)-c1cccc2cccc-3c12` the mutagenic call (Test System: AMES SALMONELLA TYPHIMURIUM, Strain/Indicator: TA100, Metabolic Activation: RAT, LIVER, S-9, AROCLOR 1254) was “active; positive”.

`O=[N+]([O-])c1ccc(/C=C/c2ccc(Cl)cc2)cc1` was tested, and the mutagenic call (Test System: AMES SALMONELLA TYPHIMURIUM, Strain/Indicator: TA98 (NR), Metabolic Activation: NONE, Method: STANDARD PLATE) was “active; positive”, the mutagenic call (Test System: AMES SALMONELLA TYPHIMURIUM, Strain/Indicator: TA98 (NR), Metabolic Activation: S-9, Method: STANDARD PLATE) was “active; positive” and the mutagenic call [1] was “active; positive”. The mutagenic call (Test System: AMES SALMONELLA TYPHIMURIUM, Strain/Indicator: TA98, Metabolic Activation: S-9, Method: STANDARD PLATE) was “active; positive”, the mutagenic call (Test System: AMES SALMONELLA TYPHIMURIUM, Strain/Indicator: TA100 (NR), Metabolic Activation: NONE, Method: STANDARD PLATE) was “inactive; negative” and the mutagenic call (Test System: AMES SALMONELLA TYPHIMURIUM, Strain/Indicator: TA100 (NR), Metabolic Activation: S-9, Method: STANDARD PLATE) was “inactive; negative”. For the same compound, the mutagenic call [2] was “inactive; negative” and the mutagenic call (Test System: AMES SALMONELLA TYPHIMURIUM, Strain/Indicator: TA100, Metabolic Activation: S-9, Method: STANDARD PLATE) was “active; positive”.

For `Cc1ccc2c(c1Nc1ccccc1)C(=O)c1ccccc1C2=O`, the mutagenic call [1] was “inactive; negative”, the mutagenic call (Test System: AMES SALMONELLA TYPHIMURIUM, Strain/Indicator: TA98, Metabolic Activation: RAT, LIVER, S-9, AROCLOR 1254, Method: STANDARD PLATE) was “inactive; negative” and the mutagenic call [3] was “active; positive”. For the same compound, the mutagenic call [4] was “inactive; negative”, the mutagenic call [5] was “inactive; negative” and the mutagenic call (Test System: AMES SALMONELLA TYPHIMURIUM, Strain/Indicator: TA1537, Metabolic Activation: NONE, Method: STANDARD PLATE) was “inactive; negative”. The mutagenic call (Test System: AMES SALMONELLA TYPHIMURIUM, Strain/Indicator: TA1537, Metabolic Activation: RAT, LIVER, S-9, AROCLOR 1254, Method: STANDARD PLATE) was “inactive; negative”, the mutagenic call (Test System: AMES SALMONELLA TYPHIMURIUM, Strain/Indicator: TA1538, Metabolic Activation: NONE, Method: STANDARD PLATE) was “inactive; negative” and the mutagenic call (Test System: AMES SALMONELLA TYPHIMURIUM, Strain/Indicator: TA1538, Metabolic Activation: RAT, LIVER, S-9, AROCLOR 1254, Method: STANDARD PLATE) was “inactive; negative”.

`C1CCCCCC2OC2CCCC1` (centres undefined) was tested, and the mutagenic call [2] was “inactive; negative”, the mutagenic call [3] was “inactive; negative” and the mutagenic call [4] was “inactive; negative”. For the same compound, the mutagenic call [5] was “inactive; negative” and the mutagenic call (Test System: UDS RAT HEPATOCYTES, Strain/Indicator: THY INCORP, Metabolic Activation: NONE) was “inactive; negative”.
